PMC12514245, “Impaired migration and lung invasion of human melanoma by a novel small molecule targeting the transmembrane domain of death receptor p75^NTR” (EMBO Molecular Medicine, 2025)
“And” between values parts separate entries of the source, which are not always exact repeats. Equal values may be shown once.

Legend:
p75^NTR TMD = target: T1, p75^NTR TMD (Homo sapiens, UniProt P08138); test: AraTM assay, wild-type p75NTR TMD (GFP/OD630); assay type: cell-based; settings: structure-activity comparison
T1 sequence (P08138 250-275 limits assumed): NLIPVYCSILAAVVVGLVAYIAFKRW

AS19 E. coli = test: Bacterial toxicity (OD630) in the AraTM assay; assay type: cell-based; settings: compared with Div17E5
A875 NT cells [1] = test: Wound healing cell motility assay, A875 NT; assay type: cell-based, human; settings: for wound healing assay, comparison of Div17E5, MS_18 and MS_63: 10 µM; for Wound area (Fold), Mean / Wound area (Fold), individual replicates: 10uM
Description: For wound healing assay, cells were grown until confluency and subjected to a wound across the cell mono-layer. Cells were then incubated with serum-free media either with DMSO or a small molecule (with or without 5 µM Q_VD_poH) and imaged at specific time-points. Cell migration is reflected as fold change in wound area over time.

[2] = test system: neurons and melanoma cells; parameters: method as in Goh et al, 2018; settings: dependent on p75NTR and JNK activity; ref Goh et al, 2018; cited from earlier work
melanoma tumor = test system: melanoma tumor; parameters: method as in Goh et al, 2018; settings: ref Goh et al, 2018; cited from earlier work
WM115 cells = test: Boyden chamber chemotaxis assay, WM115; assay type: cell-based, human; settings: 100 ng/ml NGF
Description: For Boyden chamber assay, Corning® BioCoat™ Matrigel® Invasion Chambers 8.0 µm PET Membrane were used (cat. no. 354480). A875 NT or WM115 cells were serum-starved for 16 h and then seeded at 60,000 cells per well in serum-free media under different conditions, including DMSO (vehicle) or small molecules Div17E5 or Np75-4A22 at different concentrations to the top chamber of the Matrigel-coated trans-well chamber. The pan-caspase inhibitor Q_VD_poH (at 5 µM) was also introduced in the top chamber in some experiments. Two different chemoattractants, NGF (at 50 ng/ml or 100 ng/ml as indicated) or 10% FBS were added to the bottom chamber. Assays were carried out for 8 h after which filters were fixed in 4% PFA and stained with DAPI. Cells that had remained on the top of the filter were gently scrapped away with a cotton tip. The filter lower side was imaged on an inverted fluorescence microscope and counted using ImageJ software (NIH).

A875 shp75 cells [3] = test: Boyden chamber chemotaxis assay, A875 shp75; assay type: cell-based, human; settings: NGF as chemoattractant
[4] = target: T2, fascin/p75^NTR interaction (Homo sapiens, UniProt P08138); test: Co-immunoprecipitation of fascin with p75NTR in A875 cells; assay type: cell-based; settings: NGF, experiments 1-3
T2 construct: endogenous in cells; host or cells: A875-NT (and A875 sh-p75NTR knock-down control)
T2 sequence (P08138 29-427): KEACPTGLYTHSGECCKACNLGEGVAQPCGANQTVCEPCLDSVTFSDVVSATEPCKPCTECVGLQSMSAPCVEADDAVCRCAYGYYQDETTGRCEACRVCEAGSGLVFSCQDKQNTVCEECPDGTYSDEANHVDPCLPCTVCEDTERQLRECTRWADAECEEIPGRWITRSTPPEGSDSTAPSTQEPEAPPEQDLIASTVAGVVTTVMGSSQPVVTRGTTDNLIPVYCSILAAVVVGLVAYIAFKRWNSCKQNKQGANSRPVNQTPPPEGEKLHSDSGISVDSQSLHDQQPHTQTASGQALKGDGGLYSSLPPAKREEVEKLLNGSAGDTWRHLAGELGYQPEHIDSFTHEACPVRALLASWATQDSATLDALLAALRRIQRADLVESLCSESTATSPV
Description: For co-immunoprecipitation analysis of p75^NTR/fascin interactions, A875 sh-p75^NTR and A875-NT cells were plated in a 10 cm tissue culture dish at a confluency of 3 × 10^6 cells/dish in normal growth media. Twenty-four hours after plating, the cells were treated with 1 μM 4A22 and NGF (100 ng/ml) for 12 h prior to harvest and lysis in lysis buffer (50 mM Tris/HCl pH 7.5, 1 mM EDTA, 270 mM Sucrose, 1% (v/v) Triton X-100, 0.1% (v/v) 2-mercaptoethanol and 60 mM n-Octyl-β-D glucopyranoside) containing protease inhibitor cocktail. The cellular extracts were then centrifuged at 4 °C top speed on a benchtop centrifuge for 1 min and the supernatant was collected. For immunoprecipitation, A875 cell extracts were incubated for 16 h at 4 °C on a rotating wheel with 0.8 μg of anti-p75^NTR antibody (ANT-007, Alomone) and then incubated with Sepharose protein-G beads (GE Healthcare). The beads were collected by brief centrifugation (2 min, 2500 rpm, 4 °C), washed three times with 1 ml of Wash Buffer (with composition same as the lysis buffer). After the last wash, pelleted beads were aspirated off the wash buffer followed by addition of Laemmli sample buffer and analysis by SDS–PAGE followed by Western Blot using anti-fascin antibody (MA5-11483, Invitrogen).

[5] = test system: fascin in Triton-insoluble fraction of A875 NT cells; test: Detergent-insolubility assay of fascin, A875 NT; assay type: cell-based, human; settings: NGF; insoluble/total fascin, n1-n3
Description: A single cell suspension was obtained by trypsinization followed by centrifugation and detergent extraction with lysis buffer (with 0.5% Triton X-100). Then, immediately centrifuged at 8700 g for 3 min. The resulting pellets (containing the Triton X-100-resistant proteins) were suspended in lysis buffer without Triton X-100. In parallel, cells were centrifuged and then directly suspended in lysis buffer. The Triton X-100- resistant proteins and total cell lysates were analyzed by SDS–PAGE and Western blotting with anti-fascin antibody.

A875 NT cells [6] = test: Filopodia per cell (phalloidin staining), A875 NT; assay type: cell-based, human
Description: (§1) For assessment of actin filaments, A875 cells were plated on glass coverslips in 24-well plate at a confluency of 3 × 10^4 cells/well. One day after plating, the cells were treated with 1 μM or 5 μM Np75-4A22 and NGF (100 ng/ml) or PBS for 24 h. Cells were fixed in 4% paraformaldehyde, permeabilized in 0.1% Triton-X-100, stained with Phalloidin-iFluor 488 (Abcam) at 1:2000 dilution and DAPI for 1 h. Coverslips were mounted and visualized in a laser confocal microscope.

A875 shp75 cells [7] = test: Filopodia per cell (phalloidin staining), A875 shp75; assay type: cell-based, human; settings: for filopodia per cell (well mean): A875 shp75 cells, wells 1-4
Description: as §1

| Compound | bacterial toxicity, as assessed by OD630 (AS19 E. coli) | wound healing assay, comparison of Div17E5, MS_18 and MS_63 (A875 NT cells [1]) | Wound area (Fold), Mean (A875 NT cells [1]; 0 hours) [Fold] | Wound area (Fold), individual replicates (A875 NT cells [1]; 0 hours) [Fold] | Wound area (Fold), Mean (A875 NT cells [1]; 3 hours) [Fold] | Wound area (Fold), individual replicates (A875 NT cells [1]; 3 hours) | Wound area (Fold), Mean (A875 NT cells [1]; 6 hours) [Fold] | Wound area (Fold), individual replicates (A875 NT cells [1]; 6 hours) | Wound area (Fold), Mean (A875 NT cells [1]; 9 hours) [Fold] | Wound area (Fold), individual replicates (A875 NT cells [1]; 9 hours) | Wound area (Fold), Mean (A875 NT cells [1]; 12 hours) [Fold] | Wound area (Fold), individual replicates (A875 NT cells [1]; 12 hours) | Wound area (Fold), Mean (A875 NT cells [1]; 15 hours) [Fold] | Wound area (Fold), individual replicates (A875 NT cells [1]; 15 hours) | Wound area (Fold), Mean (A875 NT cells [1]; 18 hours) [Fold] | Wound area (Fold), individual replicates (A875 NT cells [1]; 18 hours) | Wound area (Fold), Mean (A875 NT cells [1]; 21 hours) [Fold] | Wound area (Fold), individual replicates (A875 NT cells [1]; 21 hours) | Wound area (Fold), Mean (A875 NT cells [1]; 24 hours) [Fold] | Wound area (Fold), individual replicates (A875 NT cells [1]; 24 hours) | further results |
| --- | --- | --- | --- | --- | --- | --- | --- | --- | --- | --- | --- | --- | --- | --- | --- | --- | --- | --- | --- | --- | --- |
| COc1ccc(-c2cncc(Nc3ccc([N+](=O)[O-])cc3)n2)cc1 [MS_18] | somewhat lower bacterial toxicity | lower potency | 1 | 1.000 | 0.941 | 0.922 Fold and 0.959 Fold | 0.91 | 0.89 Fold and 0.929 Fold | 0.867 | 0.834 Fold and 0.901 Fold | 0.851 | 0.803 Fold and 0.899 Fold | 0.791 | 0.728 Fold and 0.855 Fold | 0.817 | 0.79 Fold and 0.845 Fold | 0.775 | 0.722 Fold and 0.827 Fold | 0.737 | 0.692 Fold and 0.783 Fold | activity in the AraTM assay (p75^NTR TMD): MS_18 more potent than Np75-3A01, -3A02 |
| CN(C)c1cccc(-c2cncc(Nc3ccc(Br)c(Cl)c3Cl)n2)c1 [MS_63] | somewhat lower bacterial toxicity | lower potency | 1 | 1.000 | 0.912 | 0.916 Fold and 0.908 Fold | 0.874 | 0.869 Fold and 0.879 Fold | 0.827 | 0.786 Fold and 0.869 Fold | 0.792 | 0.755 Fold and 0.828 Fold | 0.762 | 0.728 Fold and 0.796 Fold | 0.73 | 0.704 Fold and 0.756 Fold | 0.71 | 0.683 Fold and 0.737 Fold | 0.697 | 0.666 Fold and 0.729 Fold | – |
| O=C(/C=C/c1cccnc1)c1ccccc1O [NSC49652] | – | – | – | – | – | – | – | – | – | – | – | – | – | – | – | – | – | – | – | – | apoptotic cell death [2]: triggered apoptotic cell death; melanoma tumor growth (melanoma tumor): inhibited melanoma tumor growth |
| NGF: nerve growth factor, neurotrophin ligand of p75NTR, used as chemoattractant | – | – | – | – | – | – | – | – | – | – | – | – | – | – | – | – | – | – | – | – | values normalized to vehicle, mean (Figure 6E) (WM115 cells; mean of EXP1-3): 1.5693; values normalized to vehicle (Figure 6E) (WM115 cells; single experiments EXP1-3): 1.456 and 1.588 and 1.664; Fold change (invading cells), n1-n4 (A875 shp75 cells [3]): 0.89 Fold and 1.06 Fold and 1.42 Fold and 1.05 Fold; Fold change (invading cells), Mean (A875 shp75 cells [3]; N=4): 1.110 Fold; FASCIN/P75 [4]: 0.1943 and 0.2161 and 0.2851; FASCIN/P75 Fold change ([4]; relative to UT): 1.97 and 2.116 and 1.36; Fold change (compared to untreated cells) [5]: 3.421 and 2.292 and 2.425; Filopodia per cell, mean of experiment (A875 NT cells [6]; 100 ng/ml NGF alone, A875 NT, EXP1-EXP3): 50.0863 and 44.7441 and 46.2718; Filopodia per cell, mean of three experiments (A875 NT cells [6]; 100 ng/ml NGF alone, A875 NT, mean of EXP1-3): 47.0341; Filopodia per cell, mean of well (A875 NT cells [6]; 100 ng/ml NGF alone, A875 NT, well mean): 36.2857 and 52.7857 and 51.5714 and 47.2222 and 38.6667 and 55.1429 and 44.0556; Filopodia per cell, mean of the well (A875 NT cells [6]; 100 ng/ml NGF, EXP1 NT, well mean): 59.8571 and 51.381 and 46.8571 and 42.25; filopodia per cell (mean of 3 experiments) (A875 shp75 cells [7]; A875 shp75, 100ng/ml NGF): 33.6544; filopodia per cell (mean of one experiment) (A875 shp75 cells [7]; A875 shp75, 100ng/ml NGF, EXP1-EXP3): 32.2411 and 36.1597 and 32.5625; filopodia per cell (well mean) (A875 shp75 cells [7]; EXP1, 100 ng/ml NGF): 25.2143 and 35.5 and 37.1667 and 31.0833; filopodia per cell (well mean) (A875 shp75 cells [7]; EXP2, 100 ng/ml NGF): 37 and 30.3889 and 32.6667 and 44.5833 |
